According to the NIST ThermoML archive (doi:10.1021/acs.jced.6b00362):

Key:
[1] = Crystal; DTA
[2] = refractive index (other wavelength) (dimensionless); conditions: 101 kPa, Liquid, Wavelength=632.8 nm, ellipsometry
[3] = refractive index (other wavelength) (dimensionless); xn = mol fraction of the nth substance listed; conditions: Liquid, ellipsometry
[4] = refractive index (Na D-line) (dimensionless); conditions: 101.33 kPa, Liquid, ellipsometry

[Cl][Ce]([Cl])[Cl] [cerium trichloride]
Conditions	Normal melting temperature [°C]
[1]	822

[2]
Conditions	refractive index
1103 K	1.697
1133 K	1.691
1153 K	1.688
1173 K	1.685
1193 K	1.681
1213 K	1.678
1233 K	1.674

[Cl][Ce]([Cl])[Cl] [cerium trichloride] + [Cl-].[Cs+]
refractive index, [3], 100 kPa, Wavelength=632.8 nm
Conditions	x1 = 0.25	x1 = 0.5	x1 = 0.75	x1 = 1
1073 K	1.495	1.553	1.627	–
1103 K	1.49	1.549	1.623	1.697
1123 K	1.487	1.545	1.619	–
1133 K	–	–	–	1.691
1153 K	1.482	1.54	1.614	1.688
1173 K	1.479	1.537	1.61	1.685
1193 K	–	–	–	1.681
1203 K	–	1.532	–	–
1213 K	–	1.53	–	1.678
1223 K	–	–	1.601	–
1233 K	–	–	–	1.674

[Cl][Ce]([Cl])[Cl] [cerium trichloride] + [Cl-].[K+]
refractive index, [3], 100 kPa, Wavelength=632.8 nm
Conditions	1073 K	1103 K	1123 K	1133 K	1153 K	1173 K	1193 K	1203 K	1213 K	1233 K
x1 = 0.25	1.478	1.475	1.471	–	1.466	1.463	1.46	–	–	–
x1 = 0.5	1.56	1.554	1.552	–	1.548	1.544	–	1.54	–	–
x1 = 0.75	1.591	1.586	1.583	–	1.582	1.575	–	–	–	–
x1 = 1	–	1.697	–	1.691	1.688	1.685	1.681	–	1.678	1.674

[Cl][Ce]([Cl])[Cl] [cerium trichloride] + [Cl-].[Na+]
refractive index, [3], 101 kPa, Wavelength=632.8 nm
Conditions	1073 K	1103 K	1123 K	1133 K	1153 K	1173 K	1193 K	1213 K	1223 K	1233 K
x1 = 0.25	1.515	1.51	1.507	–	1.502	1.5	–	–	–	–
x1 = 0.5	1.595	1.59	1.587	–	1.582	1.58	1.578	–	–	–
x1 = 0.75	1.656	1.651	1.647	–	1.642	1.639	1.636	–	1.631	–
x1 = 1	–	1.697	–	1.691	1.688	1.685	1.681	1.678	–	1.674

[Cl-].[Cs+] [cesium chloride]
[2]
Conditions	refractive index
1023 K	1.439
1033 K	1.438
1053 K	1.434
1073 K	1.43
1093 K	1.426
1113 K	1.423
1133 K	1.419
1153 K	1.415
1173 K	1.411

[Cl-].[Cs+] [cesium chloride] + [Cl-].[Cl-].[Cl-].[Gd+3]
[3], 100 kPa, Wavelength=632.8 nm, x2 = 0
Conditions	refractive index
1023 K	1.439
1033 K	1.438
1053 K	1.434
1073 K	1.43
1093 K	1.426
1113 K	1.423
1133 K	1.419
1153 K	1.415
1173 K	1.411

[Cl-].[Cs+] [cesium chloride] + [Cl][Ce]([Cl])[Cl]
[3], 100 kPa, Wavelength=632.8 nm, x2 = 0
Conditions	refractive index
1023 K	1.439
1033 K	1.438
1053 K	1.434
1073 K	1.43
1093 K	1.426
1113 K	1.423
1133 K	1.419
1153 K	1.415
1173 K	1.411

[Cl-].[Cs+] [cesium chloride] + [Cl][Sm]([Cl])[Cl]
[3], 100 kPa, Wavelength=6328 nm, x2 = 0
Conditions	refractive index
1023 K	1.439
1033 K	1.438
1053 K	1.434
1073 K	1.43
1093 K	1.426
1113 K	1.423
1133 K	1.419
1153 K	1.415
1173 K	1.411

[Cl-].[Cl-].[Cl-].[Gd+3] [gadolinium(III) chloride]
Conditions	Normal melting temperature [°C]
[1]	602

refractive index
Conditions	923 K	973 K	1023 K	1073 K	1123 K	1173 K
[2]	1.7	1.685	1.68	1.675	1.664	1.662
[4]	1.7	1.685	1.68	1.675	1.664	1.662

[Cl-].[Cl-].[Cl-].[Gd+3] [gadolinium(III) chloride] + [Cl-].[Cs+]
refractive index, [3], 100 kPa, Wavelength=632.8 nm
Conditions	923 K	973 K	1023 K	1073 K	1103 K	1123 K	1173 K
x1 = 0.15	–	–	–	1.46	1.453	1.448	1.437
x1 = 0.5	1.568	1.56	1.552	1.543	1.538	1.535	1.526
x1 = 0.75	1.629	1.621	1.613	1.606	1.603	1.601	1.594
x1 = 1	1.7	1.685	1.68	1.675	–	1.664	1.662

[Cl-].[Cl-].[Cl-].[Gd+3] [gadolinium(III) chloride] + [Cl-].[K+]
refractive index, [3], 100 kPa, Wavelength=632.8 nm
Conditions	923 K	973 K	1023 K	1073 K	1123 K	1173 K
x1 = 0.25	–	–	1.48	1.473	1.465	1.457
x1 = 0.5	1.557	1.551	1.546	1.54	1.534	1.529
x1 = 0.75	1.665	1.65	1.635	1.62	1.606	1.591
x1 = 1	1.7	1.685	1.68	1.675	1.664	1.662

[Cl-].[Cl-].[Cl-].[Gd+3] [gadolinium(III) chloride] + [Cl-].[Na+]
refractive index, [3], 100 kPa, Wavelength=632.8 nm
Conditions	923 K	973 K	1023 K	1073 K	1123 K	1173 K
x1 = 0.25	1.525	1.518	1.512	1.505	1.496	1.488
x1 = 0.5	1.586	1.58	1.57	1.562	1.55	1.544
x1 = 0.75	1.643	1.64	1.638	1.627	1.62	1.616
x1 = 1	1.7	1.685	1.68	1.675	1.664	1.662

[Cl][Nd]([Cl])[Cl] [neodymium(III) chloride]
Conditions	Normal melting temperature [°C]
[1]	760

[2]
Conditions	refractive index
1053 K	1.704
1073 K	1.701
1093 K	1.698
1113 K	1.695
1133 K	1.692
1153 K	1.689
1173 K	1.686
1193 K	1.683
1213 K	1.68

[Cl-].[K+] [potassium chloride]
[2]
Conditions	refractive index
1073 K	1.393
1093 K	1.39
1103 K	1.388
1113 K	1.386
1123 K	1.385
1133 K	1.383
1153 K	1.38
1173 K	1.377
1193 K	1.374

[Cl-].[K+] [potassium chloride] + [Cl-].[Cl-].[Cl-].[Gd+3]
[3], 100 kPa, Wavelength=632.8 nm, x2 = 0
Conditions	refractive index
1073 K	1.393
1093 K	1.39
1103 K	1.388
1113 K	1.386
1123 K	1.385
1133 K	1.383
1153 K	1.38
1173 K	1.377
1193 K	1.374

[Cl-].[K+] [potassium chloride] + [Cl-].[Na+]
[3], 101 kPa, Wavelength=632.8 nm, x2 = 0.5
Conditions	refractive index
953 K	1.42
973 K	1.417
993 K	1.414
1013 K	1.411
1033 K	1.408
1053 K	1.405
1073 K	1.402
1093 K	1.399
1103 K	1.397
1113 K	1.396
1123 K	1.394
1133 K	1.393
1153 K	1.39
1173 K	1.387

[Cl-].[K+] [potassium chloride] + [Cl][Ce]([Cl])[Cl]
[3], 100 kPa, Wavelength=632.8 nm, x2 = 0
Conditions	refractive index
1073 K	1.393
1093 K	1.39
1103 K	1.388
1113 K	1.386
1123 K	1.385
1133 K	1.383
1153 K	1.38
1173 K	1.377
1193 K	1.374

[Cl-].[K+] [potassium chloride] + [Cl][Sm]([Cl])[Cl]
[3], 100 kPa, Wavelength=632.8 nm, x2 = 0
Conditions	refractive index
1073 K	1.393
1093 K	1.39
1103 K	1.388
1113 K	1.386
1123 K	1.385
1133 K	1.383
1153 K	1.38
1173 K	1.377
1193 K	1.374

[Cl][Sm]([Cl])[Cl] [samarium chloride]
Conditions	Normal melting temperature [°C]
[1]	678

[2]
Conditions	refractive index
973 K	1.712
1003 K	1.705
1023 K	1.701
1073 K	1.691
1103 K	1.684
1123 K	1.68
1153 K	1.674
1173 K	1.672

[Cl][Sm]([Cl])[Cl] [samarium chloride] + [Cl-].[Cs+]
refractive index, [3], 100 kPa, Wavelength=6328 nm
Conditions	973 K	1003 K	1023 K	1073 K	1103 K	1123 K	1153 K	1173 K	1203 K
x1 = 0.15	–	–	1.468	1.464	1.458	1.448	–	1.44	–
x1 = 0.5	1.564	1.558	1.557	1.55	1.543	1.54	–	1.527	1.523
x1 = 0.75	1.675	1.668	1.662	1.654	1.651	1.642	–	1.64	1.635
x1 = 1	1.712	1.705	1.701	1.691	1.684	1.68	1.674	1.672	–

[Cl][Sm]([Cl])[Cl] [samarium chloride] + [Cl-].[K+]
refractive index, [3], 100 kPa, Wavelength=632.8 nm
Conditions	973 K	1003 K	1023 K	1073 K	1103 K	1123 K	1153 K	1173 K	1203 K
x1 = 0.25	–	–	–	1.478	1.47	1.466	–	1.458	1.45
x1 = 0.5	1.588	1.582	1.577	1.56	1.551	1.54	–	1.525	1.52
x1 = 0.75	1.66	1.652	1.651	1.63	1.623	1.618	–	1.605	1.601
x1 = 1	1.712	1.705	1.701	1.691	1.684	1.68	1.674	1.672	–

[Cl][Sm]([Cl])[Cl] [samarium chloride] + [Cl-].[Na+]
refractive index, [3], 100 kPa, Wavelength=632.8 nm
Conditions	973 K	1003 K	1023 K	1073 K	1103 K	1123 K	1153 K	1173 K	1193 K
x1 = 0.25	1.536	1.53	1.526	1.518	1.513	1.51	–	1.503	1.499
x1 = 0.5	1.613	1.609	1.602	1.583	1.582	1.58	–	1.569	–
x1 = 0.75	1.672	1.665	1.662	1.653	1.648	1.64	–	1.629	–
x1 = 1	1.712	1.705	1.701	1.691	1.684	1.68	1.674	1.672	–

[Cl-].[Na+] [sodium chloride]
[2]
Conditions	refractive index
1083 K	1.41
1093 K	1.408
1103 K	1.407
1113 K	1.406
1123 K	1.405
1133 K	1.404
1153 K	1.402
1173 K	1.399

[Cl-].[Na+] [sodium chloride] + [Cl-].[Cl-].[Cl-].[Gd+3]
[3], 100 kPa, Wavelength=632.8 nm, x2 = 0
Conditions	refractive index
1083 K	1.41
1093 K	1.408
1103 K	1.407
1113 K	1.406
1123 K	1.405
1133 K	1.404
1153 K	1.402
1173 K	1.399

[Cl-].[Na+] [sodium chloride] + [Cl][Ce]([Cl])[Cl]
[3], 101 kPa, Wavelength=632.8 nm, x2 = 0
Conditions	refractive index
1083 K	1.41
1093 K	1.408
1103 K	1.407
1113 K	1.406
1123 K	1.405
1133 K	1.404
1153 K	1.402
1173 K	1.399

[Cl-].[Na+] [sodium chloride] + [Cl][Sm]([Cl])[Cl]
[3], 100 kPa, Wavelength=632.8 nm, x2 = 0
Conditions	refractive index
1083 K	1.41
1093 K	1.408
1103 K	1.407
1113 K	1.406
1123 K	1.405
1133 K	1.404
1153 K	1.402
1173 K	1.399
